Source: US20050064507A1, “Determining kinase specificity” (priority 2003, published 2005)
Square brackets hold non-standard residues; d marks the D form. Ends that are not written are not given here. pS = N[C@@H](COP(=O)(O)O)C(=O)O

Key:
[1] = target: T1, PKC-theta (Homo sapiens, UniProt Q04759); experiment: In vitro kinase assay: peptide phosphorylation by PKC-theta; format: biochemical; conditions: Table 8
T1 construct: His-tag; made in house; host or cells: baculovirus-infected Sf9 cells
Description: A second strategy for validation of the PSSM derived from the methods described herein is to identify sequences represented in the human proteome that have low percentiles derived from the PSSM, to synthesize peptides that have those sequences, and test the efficiency of phosphorylation of those peptides by the kinase of interest. […] The results are shown for individual peptides (FIG. 11, panel A) or for groups of peptides aggregated by percentile prediction (FIG. 11, panel B). As with the testing described above with prospectively chosen peptides, the percentile scores are highly predictive of phosphorylation by the relevant kinase.
An example of the purification procedure used for production of active kinase is as follows. A preparation of PKC-theta was prepared using a Gateway expression construct containing PKC-theta that was expressed in baculovirus, which were used to infect Sf9 cells. The cell pellet from a liter of baculovirus-infected Sf9 cells was resuspended in 20 volumes (60 ml) of extraction buffer (20 mM Na phosphate buffer pH 7.5, 500 mM NaCl, 5 mM pyrophosphate, 10% glycerol, 10 mM imidazole, 1 mM PMSF), sonicated twice for one minute (1 cm tip at 60% power and 50% duty cycle) and cell disruption was verified microscopically. The sample was adjusted to five mM MgCl2 and treated with one U benzonase/ml for an additional 20 minute on ice. The sample was clarified by centrifugation in a JA-20 rotor at 15K for 30 min at 4° C., filtered through a […] filter and applied at 0.5 ml/min to a one ml chelating sepharose column previously charged with nickel and equilibrated with extraction buffer. The column was washed with extraction buffer at one ml/min to baseline and eluted in a 20 ml gradient (20-500 mM imidazole in extraction buffer) into one ml fractions that were analyzed by SDS-PAGE. Fractions with the highest concentration of protein were pooled, were dialyzed twice against one liter of 20 mM Na PO4 pH 7.5, 50 mM NaCl buffer. The kinase pool was dialyzed twice against 20 mM HEPES pH 7.4, 100 mM NaCl, 2 mM EDTA, 5 mM DTT, 0.05% Triton-X-100. After dialysis, the sample was adjusted to 50% glycerol and quick-frozen in a dry ice/ethanol bath.
(§1) The conditions of the kinase assay and the amount of active kinase used varied with the kinase and with the accuracy needed. For a typical experiment, 5-20 ng of kinase was used per well and each peptide pool was assayed in duplicate wells. Note that the absolute amount of kinase used was not usually a critical parameter, because the desired information related to specificity of the kinase not its absolute activity, and robustness of the assay depends on comparisons of the same amount of kinase on different peptides. The combination of kinase concentration and assay duration was modified to assure that the stoichiometry of peptide phosphorylation never exceeded 5%. The choice of kinase buffer depended on the kinase being analyzed. For studies of PKC, 100 mM HEPES, 0.05% Triton-X100, 1 mM CaCl2, 20 mM MgCl2, 0.2 mg/ml phosphatidyl serine (Avanti Polar Lipids), PMA 100 ng/ml was typically used. The lipid stock was prepared by transferring 3 mg phosphatidyl serine into iced mixture of 450 μl water plus 50 μl of 10% Triton-X100, sonicating 10 times on ice for 1 sec each.
The kinase reaction mixture was assembled by sequential addition to a tube held on ice of: 5 μl peptide (100 μM for final concentration of 10 μM), 15 μl of kinase (typically 5 ng/well, in appropriate kinase buffer), 30 μl of ATP (1 uCi/well of ^32P-gamma ATP in a stock of 167 μM cold ATP in the kinase buffer; for final concentration for 100 μM ATP). The mixture was rapidly warmed to desired reaction temperature (30° C. for PKC) and incubated for the desired duration (usually 10 minutes). The kinase assay was terminated by transfer to 4° C. water batch, and rapid addition of an equal volume (50 μl) of stop solution [0.1M ATP+0.1M EDTA in water, pH 8]. […]

[2] = system: pPKC Ab; experiment: pPKC Ab binding to peptides phosphorylated in vitro by PKC-theta; conditions: for pPKC Ab binding to peptide: before/after phosphorylation by PKC-theta
Experimental: Synthetic peptides chosen from those shown in Table 4 were subjected to phosphorylation by PKC-theta, Assay conditions were similar to those described herein, except that the phosphorylation reaction was for 30 minutes at 30° C. and then overnight at 4° C. The reaction mixture was applied to HB avidin-coated plates, the plates washed, and then pPKC Ab binding assayed.

[3] = target: T2, PKC-delta (Homo sapiens, UniProt Q05655); experiment: In vitro kinase assay: peptide phosphorylation by PKC-delta; format: biochemical; conditions: peptide concentration of 10 nM; percentage of phosphorylation of the best validating peptide substrate
T2 construct: purchased Calbiochem
Description: One approach to validating a substrate identification method can involve, for example, comparison of substrate sites predicted by the method with in vitro phosphorylation results obtained using the selected kinase and peptides of known sequences. Such a systematic validation has been performed for the methods described herein. For example, a panel of seventy five peptides was synthesized, the phosphorylation observed for each peptide was experimentally measured, the amount of phosphorylation was quantified, the phosphorylation results for each peptide were normalized to the phosphorylation observed with the best substrate tested and these amounts were compared with predictions made according to the invention and according to the procedures provided by others. These peptides are referred to herein as proteomic peptides because their sequences are chosen from proteins in the human proteome; unlike the test sets employed herein, these peptides include no degenerate positions
Table 2 compares the present predictions with actual measurements of phosphorylation on validating peptides. The method of synthesis of the validating peptides was as described elsewhere in the application, and each included an N-terminal linker sequence of biotinylated-Lys-dansylated-Lys-Pro-Pro-Gly (SEQ ID NO:231). The length of the remaining “core” of the validating peptides ranged from 12-21 residues with one to five S/T residues. In vitro phosphorylation of these validating peptides was measured in the manner described herein. […] In vitro phosphorylation results for the validating peptides were expressed as normalized values, namely as a percentage of phosphorylation of the best validating peptide substrate in the group.
as §1
The kinase reaction mixture was assembled by sequential addition to a tube held on ice of: 5 μl peptide (100 μM for final concentration of 10 μM), 15 μl of kinase (typically 5 ng/well, in appropriate kinase buffer), 30 μl of ATP (1 uCi/well of ^32P-gamma ATP in a stock of 167 μM cold ATP in the kinase buffer; for final concentration for 100 μM ATP). The mixture was rapidly warmed to desired reaction temperature (30° C. for PKC) and incubated for the desired duration (usually 10 minutes). The kinase assay was terminated by transfer to 4° C. water batch, and rapid addition of an equal volume (50 μl) of stop solution [0.1M ATP+0.1M EDTA in water, pH 8].
The peptides were then captured from the reaction mixture by transfer to a Reacti-Bind Streptavidin High Binding Capacity Coated Plates (HBC) (Pierce Biotechnology) as follows. The HBC plates were pre-rinsed three times with PBS/Tween PBS/Tween20 0.05% (PBS/Tween). […]

[4] = system: pPKC antibody; conditions: cited from earlier work

T2 sequence (Q05655 whole entry): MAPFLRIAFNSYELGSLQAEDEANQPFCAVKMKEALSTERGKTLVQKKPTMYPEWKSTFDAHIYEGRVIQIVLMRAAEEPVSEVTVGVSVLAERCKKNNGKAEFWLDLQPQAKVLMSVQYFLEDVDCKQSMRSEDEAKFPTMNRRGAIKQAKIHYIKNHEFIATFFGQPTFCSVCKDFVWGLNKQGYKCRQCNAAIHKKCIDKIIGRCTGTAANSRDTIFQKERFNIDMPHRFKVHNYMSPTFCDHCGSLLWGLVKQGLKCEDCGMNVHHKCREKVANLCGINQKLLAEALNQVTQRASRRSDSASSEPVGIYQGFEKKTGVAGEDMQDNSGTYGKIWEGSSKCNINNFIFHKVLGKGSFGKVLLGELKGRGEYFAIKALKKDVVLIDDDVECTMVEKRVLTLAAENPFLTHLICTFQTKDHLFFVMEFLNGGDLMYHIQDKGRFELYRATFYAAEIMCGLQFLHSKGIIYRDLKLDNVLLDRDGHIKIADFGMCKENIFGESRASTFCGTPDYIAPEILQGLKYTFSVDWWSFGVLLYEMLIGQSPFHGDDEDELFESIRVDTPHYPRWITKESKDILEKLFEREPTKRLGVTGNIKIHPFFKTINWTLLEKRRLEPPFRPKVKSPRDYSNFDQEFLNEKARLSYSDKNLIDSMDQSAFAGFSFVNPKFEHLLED
T1 sequence (Q04759 whole entry): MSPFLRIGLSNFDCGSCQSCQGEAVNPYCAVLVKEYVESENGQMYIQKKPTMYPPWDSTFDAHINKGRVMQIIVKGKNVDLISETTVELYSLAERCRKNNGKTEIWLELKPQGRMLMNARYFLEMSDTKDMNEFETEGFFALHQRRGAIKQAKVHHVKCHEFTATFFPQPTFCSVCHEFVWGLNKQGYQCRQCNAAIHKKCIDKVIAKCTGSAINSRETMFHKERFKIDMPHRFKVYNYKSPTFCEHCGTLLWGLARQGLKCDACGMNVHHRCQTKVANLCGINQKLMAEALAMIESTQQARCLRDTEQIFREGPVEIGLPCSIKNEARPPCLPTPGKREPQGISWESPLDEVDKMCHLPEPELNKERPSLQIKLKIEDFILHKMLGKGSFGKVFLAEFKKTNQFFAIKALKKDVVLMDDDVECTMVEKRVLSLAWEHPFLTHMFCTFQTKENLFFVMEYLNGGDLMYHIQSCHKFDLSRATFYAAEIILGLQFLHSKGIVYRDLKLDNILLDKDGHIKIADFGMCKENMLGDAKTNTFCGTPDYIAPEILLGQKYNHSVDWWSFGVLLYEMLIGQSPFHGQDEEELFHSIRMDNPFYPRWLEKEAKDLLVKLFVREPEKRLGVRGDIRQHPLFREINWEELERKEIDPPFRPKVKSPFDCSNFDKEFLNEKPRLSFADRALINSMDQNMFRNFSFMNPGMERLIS

Substance: 75 (EEAEHKATKARLADK) [compound 75]
- Peptide phosphorylation by PKC-theta [1]: 0
- pPKC Ab Signal on peptide without exposure to PKC-theta [2]: 0.02
- pPKC Ab Signal on peptide after exposure to PKC-theta phosphorylation ([2]; 30 minutes at 30° C. then overnight at 4° C.): 0.02
- pPKC Ab Signal amount dependent on PKC phosphorylation ([2]; difference after minus without exposure): 0.00
- Measured in vitro phosphorylation by PKC-delta [3]: 0%

Substance: 229 (WKN[pS]IRH) [compound 229]
- binding of pPKC antibody (manufacturer Cell Signaling Technology) [4]: binds

Substance: 230 (RRP[pS]YRK) [compound 230]
- binding of pPKC antibody (manufacturer Cell Signaling Technology) [4]: binds

Substance: HVRRRRGTFKRSKLRARD [SEQ ID NO 1]
- pPKC Ab binding to peptide [2]: after phosphorylation but not before

Substance: LRRRSLRRSNSISKSPGP [SEQ ID NO 121]
- pPKC Ab binding to peptide [2]: after phosphorylation but not before
